This experiment concerns CD2F1 mice, L1210 leukemia ip, survival T/C. As to the kind of experiment: NCI In Vivo Anticancer Drug Screen. Data for tumor model L1210 Leukemia (intraperitoneal) in CD2F1 (CDF1) mice. The settings on record: endpoint: mean survival time, higher = longer survival. Summed up:
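Antitumor effect is scored in animals hosting a serially transplanted tumor. Values compare compound-dosed animals against vehicle-only controls as a simple quotient.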

Consider five compounds from PubChem BioAssay AID256 (DTP/NCI, 2004).

SMILES strings stand for the structures. “And” between values parts separate entries of the source, which are not always exact repeats. Identical values can stand only once. Inconclusive results and toxic doses are left out.

`CC(=O)NC1=C(N2CC2)C(=O)C(NC(C)=O)=C(N2CC2)C1=O`: the T/C (dose: 0.5 mg/kg/injection, schedule: Q01DX009 (ip), vehicle: saline) is 164 % of control and 181 % of control; the T/C (dose: 1.0 mg/kg/injection, schedule: Q01DX007 (ip), vehicle: saline) is 190 % of control; the T/C (dose: 1.0 mg/kg/injection, schedule: Q01DX009 (ip), vehicle: saline) was 213 % of control and 230 % of control and 261 % of control; the T/C (dose: 1.0 mg/kg/injection, schedule: Q03DX003 (ip), vehicle: saline) is 162 % of control; the T/C (dose: 2.0 mg/kg/injection, schedule: Q01DX007 (ip), vehicle: saline) was 105 % of control; the T/C (dose: 2.0 mg/kg/injection, schedule: Q01DX009 (ip), vehicle: saline) was 253 % of control and 100 % of control and 101 % of control. Moreover, the T/C (dose: 2.0 mg/kg/injection, schedule: Q03DX003 (ip), vehicle: saline) is 198 % of control; the T/C (dose: 2.0 mg/kg/injection, schedule: Q04DX003 (ip), vehicle: saline) is 191 % of control; the T/C (dose: 4.0 mg/kg/injection, schedule: Q03DX003 (ip), vehicle: saline) was 107 % of control; the T/C (dose: 4.0 mg/kg/injection, schedule: Q04DX003 (ip), vehicle: saline) was 217 % of control.

Consider `O=C(C(=O)c1ccc(Cl)cc1)c1ccc(Cl)cc1`, for which the T/C (dose: 6.25 mg/kg/injection, schedule: Q04DX003 (ip), vehicle: other) was 94 % of control; the T/C (dose: 12.5 mg/kg/injection, schedule: Q04DX003 (ip), vehicle: other) is 90 % of control; the T/C (dose: 25.0 mg/kg/injection, schedule: Q04DX003 (ip), vehicle: other) was 90 % of control.

In the case of `Nc1ccc2c(c1)C(=O)c1ccc(N)cc1C2=O`, the T/C runs as follows: (dose: 100.0 mg/kg/injection, schedule: Q01DX001 (ip), vehicle: saline with Tween-80) 88 % of control; (dose: 200.0 mg/kg/injection, schedule: Q01DX001 (ip), vehicle: saline with Tween-80) 96 % of control; (dose: 400.0 mg/kg/injection, schedule: Q01DX001 (ip), vehicle: saline with Tween-80) 88 % of control.

As for `CC(=O)OCC1OC([Se][As](C)C)C(OC(C)=O)C(OC(C)=O)C1OC(C)=O` (stereo not given), the T/C runs as follows: (dose: 3.13 mg/kg/injection, schedule: Q01DX009 (ip), vehicle: saline with Tween-80) 98 % of control; (dose: 6.25 mg/kg/injection, schedule: Q01DX001 (ip), vehicle: saline with Tween-80) 95 % of control; (dose: 6.25 mg/kg/injection, schedule: Q01DX009 (ip), vehicle: saline with Tween-80) 96 % of control; (dose: 12.5 mg/kg/injection, schedule: Q01DX001 (ip), vehicle: saline with Tween-80) 97 % of control; (dose: 12.5 mg/kg/injection, schedule: Q01DX009 (ip), vehicle: saline with Tween-80) 96 % of control.

As to `COc1cc2c(cc1OC)C(Cc1ccccc1)=NCC2`, the T/C runs as follows: (dose: 50.0 mg/kg/injection, schedule: Q01DX009 (ip), vehicle: saline sonified) 101 % of control; (dose: 100.0 mg/kg/injection, schedule: Q01DX009 (ip), vehicle: saline sonified) 101 % of control; (dose: 100.0 mg/kg/injection, schedule: Q04DX003 (ip), vehicle: saline with Tween-80) 94 % of control; (dose: 200.0 mg/kg/injection, schedule: Q04DX003 (ip), vehicle: saline with Tween-80) 92 % of control.
